Test results: patent US20250161312A1, “A METHOD FOR THE TREATMENT OF CHEMOTHERAPEUTIC DRUG-INDUCED NEPHROTOXICITY” (INSTITUT NATIONAL DE LA SANTÉ ET DE LA RECHERCHE MÉDICALE, priority 2022, published 2025)

Key:
C57BL6/J mice = assay: Sub-chronic cisplatin-induced kidney injury model; format: in vivo
Procedure: FIG. 1. Schematic representation of the different animal procedures. (A) Acute cisplatin-induced kidney injury. […] (B) Sub-chronic cisplatin-induced kidney injury. […] (C) KW-6002 administration schedule in the acute model. […] (D) KW-6002 administration schedule in the sub-chronic model.
Animal experiments were adapted from 63-64. Animal procedures were performed in 8 to 10 weeks old male C57B16/J mice (Janvier Labs). Mice were fed a laboratory standard diet with water and food ad libitum and were kept under constant environmental conditions with a 12-hour light-dark cycle. Istradefylline (KW-6002; Tocris) was dissolved in a carrier solution consisting in 15% DMSO, 15% cremophor (Sigma), 70% saline solution (vehicle). Cisplatin (Accord Healthcare) was dissolved in saline solution. […] Three days after this single injection, animals were sacrificed by cervical dislocation (FIG. 1A).
Prior sacrifice by cervical dislocation, retro-orbital blood samples were collected in heparinized tubes and centrifuged for 10 min at 2000 rpm at room temperature. Renal function was assessed by Blood urea nitrogen (BUN) measurement using a AU480 Chemistry Analyzer (Beckman Coulter). At the time of sacrifice, kidneys or LLC1 tumors were harvested and stored in either “RNA later” solution (Thermo Fisher), 4% neutral buffered formalin or snap-frozen in liquid nitrogen.
Formalin-fixed and paraffin-embedded sections (3 μm thick) were stained with Hematoxylin and Eosin (Sigma Aldrich) or Periodic Acid-Schiff (Sigma-Aldrich). Slices were scored by a nephropathologist in a blinded manner. A kidney injury score grading scale from 0 to 5 was used to assess the severity of the injury as follow: 0=no lesions, 1=minimal injury characterized by occurrence of necrosis and debris; 2=mild injury with single cell necrosis, pyknotic cells, and apoptosis; 3=moderate injury characterized by tubular distension, vacuolation, and some cellular debris, 4=severe injury with occasional hyaline casts observed, patchy epithelial necrosis in all segments, loss of epithelial lining; and 5=very severe injury characterized by extensive tubular epithelial necrosis in all segments, loss of epithelial layer from many tubules widespread intraluminal cellular debris, and frequent hyaline casts particularly prominent in the medullary region (67).
Total RNA from kidney samples was extracted with phenol/chloroform and subsequently precipitated in isopropanol as described previously (71). Total RNA from cultured renal cells was extracted using RNeasy Mini kit (Qiagen) following manufacturer's recommendations.
Reverse transcription was performed on 1 μg of RNA using high-capacity cDNA reverse transcription kit (Thermo Fisher), according the manufacturer's recommendation. Real time PCR was performed on a StepOne device using Taqman Gene Expression Master Mix (Thermo Fisher), following manufacturer's recommendations. […]

RPTEC/hTERT cells [1] = assay: Caspase 3/7 activity in RPTEC cells; format: cell-based, human; details: cisplatin 50 μM, 48 hours
Procedure: Cells were cultured in DMEM/F12 medium (Dulbecco's modified Eagle's medium and Ham's F12 medium, Thermo Fisher) supplemented with 1% penicillin/streptomycin, 5 pmol/L triiodo-L-thyronine, 10 ng/ml recombinant human epidermal growth factor, 3.5 μg/mL ascorbic acid, 5.0 μg/mL human transferrin, 5.0 μg/mL insulin, 25 ng/mL prostaglandin E1, 25 ng/ml hydrocortisone, 8.65 ng/mL sodium selenite, 0.1 mg/mL G418 and 1.2 g/L sodium bicarbonate (Sigma). Lewis lung carcinoma mouse LLC1 cells were cultured in DMEM glutamax (Thermo Fisher) containing 10% fetal calf serum and 1% penicillin/streptomycin. Cells were cultured at 37° C. in a humidified atmosphere of 5% CO2.
Apoptosis was assessed in RPTEC/hTERT and LLC1 cell lysates using the caspase-Glo 3/7 assay (Promega) according to manufacturer's recommendations.

kidney mouse sections = assay: Red Oil staining of kidney mouse sections; format: in vivo; details: Red Oil staining, kidney samples
Procedure: (§1) FIG. 6. KW6002 alleviates the cisplatin-induced nephrotoxicity associated with apoptosis, lipid metabolism, and oxidative stress. (A) Tail moment assessed by comet assay; 50 cells/condition were analyzed. (B and C) KW6002 attenuates cisplatin-induced renal lipid accumulation, assessed by Red Oil staining. […] Results are the mean±SEM (n=6-9 mice/group). (F-H) KW6002 attenuated cisplatin-induced oxidative stress in RPTEC/hTERT1 cells. (F and G) Gene expression of Nrf2 (F) and HO1 (G). […] Results are the mean±SEM (n=3 independent experiments).
(§2) 10 μm frozen kidney mouse sections were fixed with ethanol (60%) then incubated for 15 min with Oil Red O Solution (Fisher Biotech) dissolved in isopropanol. After several washes with ddH2O, samples were incubated 3 min with hematoxylin. Lipid droplets are stained in red whereas nuclei appeared blue. […] RPTEC/hTERT cells were fixed with ethanol (60%) then incubated for 15 min with Oil Red O Solution. The cells were washed three times with ddH2O and incubated 3 min with hematoxylin. Coverslips were rinsed with H2O before mounting on microscope slides using glycerol gelatin aqueous slide mounting medium (Sigma). Quantifications were performed blindly using ImageJ software. […] The resulting red color images were quantified using a custom threshold (0.173 for RPTEC/hTERT cells and 0.140 for kidney stainings).

RPTEC/hTERT cells [2] = assay: Red Oil staining of RPTEC/hTERT cells; format: cell-based, human; details: cisplatin 50 μM, 25 μM KW-6002, 48 hours
Procedure: as §1, §2

SMILES: CCn1c(=O)c2c(nc(/C=C/c3ccc(OC)c(OC)c3)n2C)n(CC)c1=O [KW-6002, 8-[(E)-2-(3,4-dimethoxyphenyl)vinyl]-1,3-diethyl-7-methyl-3,7-dihydro-1H-purine-2,6-dione]
- histological lesions (histological score of renal injury) (C57BL6/J mice; SC model, FIG. 2H): less severe histological lesions
- mRNA levels of Tnfα (C57BL6/J mice; SC model, FIG. 2K, figure not given): lower mRNA levels of Tnfα
- mRNA levels of I16, change vs. cisplatin (C57BL6/J mice; SC model, kidney): −77.5±5.6%
- reduction of KIM-1 expression vs. cisplatin (C57BL6/J mice; SC model, kidney mRNA): −79.5±3.8%
- reduction of NGAL expression vs. cisplatin (C57BL6/J mice; SC model, kidney mRNA): −82.9±1.4%
- reduction of BUN vs. cisplatin (C57BL6/J mice; SC model: cisplatin 3 mg/kg i.p. six days, KW-6002 3 mg/kg i.p. daily day-5 to day 7): −70.2±5.1%
- cisplatin-induced increase in expression of Nrf2 (C57BL6/J mice; in vivo, subchronic model, FIG. 6D): normalized
- cisplatin-induced increase in expression of HO1 (C57BL6/J mice; in vivo, subchronic model, FIG. 6E): normalized
- effect on platinum accumulation in kidneys (C57BL6/J mice; independent experiment, animals of FIGS. 2G-2L): replicated
- cisplatin-induced apoptosis (RPTEC/hTERT cells [1]): inhibited cisplatin-induced apoptosis
- cisplatin-induced apoptosis (RPTEC/hTERT cells [1]; listed as KW6002): inhibiting cisplatin-induced apoptosis
- cisplatin-induced accumulation of lipid droplets in kidney (kidney mouse sections): significantly reduced
- lipid accumulation induced by cisplatin (RPTEC/hTERT cells [2]): significantly reduced
